Source: PMC8550792, “Evolution of kinase polypharmacology across HSP90 drug discovery” (Cell Chemical Biology, 2021)

Key:
Assay in all cases: biochemical
Assay type in all cases: biochemical
382 unique human kinases [1] = target: T1, 382 unique human kinases (Homo sapiens, UniProt O00311); settings: kinase CDC7/DBF4, compound 10 uM; for remaining activity at 10 µM: read-out: % Enzyme Activity (relative to DMSO controls)
T1 construct: purchased Reaction Biology (HotSpot contract assay)

382 unique human kinases [2] = target: T2, 382 unique human kinases (Homo sapiens, UniProt O96017, I157T); settings: CHK2 (I157T), 10 uM; for remaining activity at 10 µM: read-out: % Enzyme Activity (relative to DMSO controls)
T2 construct: purchased Reaction Biology (HotSpot contract assay)
T2 sequence (O96017 whole entry I157T): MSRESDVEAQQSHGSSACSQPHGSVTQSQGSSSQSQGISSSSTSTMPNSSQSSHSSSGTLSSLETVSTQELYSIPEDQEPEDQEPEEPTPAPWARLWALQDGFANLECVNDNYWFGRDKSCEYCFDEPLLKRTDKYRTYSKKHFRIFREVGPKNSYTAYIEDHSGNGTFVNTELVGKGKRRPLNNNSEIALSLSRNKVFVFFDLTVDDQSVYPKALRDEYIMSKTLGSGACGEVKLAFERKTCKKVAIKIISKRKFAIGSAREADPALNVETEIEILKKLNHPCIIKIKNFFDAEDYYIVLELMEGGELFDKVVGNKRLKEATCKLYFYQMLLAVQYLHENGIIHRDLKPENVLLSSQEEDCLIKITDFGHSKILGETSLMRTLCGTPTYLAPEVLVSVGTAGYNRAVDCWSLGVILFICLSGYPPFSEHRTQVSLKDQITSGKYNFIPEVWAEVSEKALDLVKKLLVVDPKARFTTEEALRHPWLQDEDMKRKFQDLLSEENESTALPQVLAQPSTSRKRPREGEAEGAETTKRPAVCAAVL

382 unique human kinases [3] = target: T3, 382 unique human kinases (Homo sapiens, UniProt Q12866); settings: c-MER, 10 uM; for remaining activity at 10 µM: read-out: % Enzyme Activity (relative to DMSO controls)
T3 construct: purchased Reaction Biology (HotSpot contract assay)
T3 sequence (Q12866 21-999): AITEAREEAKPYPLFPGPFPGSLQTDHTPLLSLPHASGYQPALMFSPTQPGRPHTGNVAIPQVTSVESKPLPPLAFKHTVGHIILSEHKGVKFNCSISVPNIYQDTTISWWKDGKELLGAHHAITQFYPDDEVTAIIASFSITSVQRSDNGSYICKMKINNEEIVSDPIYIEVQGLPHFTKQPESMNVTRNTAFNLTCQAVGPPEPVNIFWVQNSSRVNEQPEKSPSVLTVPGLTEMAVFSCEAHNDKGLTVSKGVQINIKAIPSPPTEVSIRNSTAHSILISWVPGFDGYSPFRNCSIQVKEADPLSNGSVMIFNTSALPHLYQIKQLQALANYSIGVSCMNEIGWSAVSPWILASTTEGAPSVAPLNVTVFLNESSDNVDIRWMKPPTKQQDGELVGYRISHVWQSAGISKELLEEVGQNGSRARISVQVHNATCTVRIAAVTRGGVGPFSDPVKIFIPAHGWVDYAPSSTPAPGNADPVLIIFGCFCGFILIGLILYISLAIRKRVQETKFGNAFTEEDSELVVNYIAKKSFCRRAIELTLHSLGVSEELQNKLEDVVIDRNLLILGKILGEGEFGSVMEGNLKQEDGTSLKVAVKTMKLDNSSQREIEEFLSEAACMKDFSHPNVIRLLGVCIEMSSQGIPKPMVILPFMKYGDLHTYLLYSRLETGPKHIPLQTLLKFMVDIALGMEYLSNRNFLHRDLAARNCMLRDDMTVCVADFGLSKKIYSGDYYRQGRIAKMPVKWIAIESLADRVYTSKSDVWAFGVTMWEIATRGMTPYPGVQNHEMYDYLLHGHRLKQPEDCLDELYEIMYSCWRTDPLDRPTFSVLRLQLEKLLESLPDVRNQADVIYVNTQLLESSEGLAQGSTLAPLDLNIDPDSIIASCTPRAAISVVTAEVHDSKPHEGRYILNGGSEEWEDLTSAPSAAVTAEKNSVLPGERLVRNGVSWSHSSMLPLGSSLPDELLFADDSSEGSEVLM

382 unique human kinases [4] = target: T4, 382 unique human kinases (Homo sapiens, UniProt Q16512); settings: PKN1/PRK1, 10 uM; for remaining activity at 10 µM: read-out: % Enzyme Activity (relative to DMSO controls)
T4 construct: purchased Reaction Biology (HotSpot contract assay)
T4 sequence (Q16512 whole entry): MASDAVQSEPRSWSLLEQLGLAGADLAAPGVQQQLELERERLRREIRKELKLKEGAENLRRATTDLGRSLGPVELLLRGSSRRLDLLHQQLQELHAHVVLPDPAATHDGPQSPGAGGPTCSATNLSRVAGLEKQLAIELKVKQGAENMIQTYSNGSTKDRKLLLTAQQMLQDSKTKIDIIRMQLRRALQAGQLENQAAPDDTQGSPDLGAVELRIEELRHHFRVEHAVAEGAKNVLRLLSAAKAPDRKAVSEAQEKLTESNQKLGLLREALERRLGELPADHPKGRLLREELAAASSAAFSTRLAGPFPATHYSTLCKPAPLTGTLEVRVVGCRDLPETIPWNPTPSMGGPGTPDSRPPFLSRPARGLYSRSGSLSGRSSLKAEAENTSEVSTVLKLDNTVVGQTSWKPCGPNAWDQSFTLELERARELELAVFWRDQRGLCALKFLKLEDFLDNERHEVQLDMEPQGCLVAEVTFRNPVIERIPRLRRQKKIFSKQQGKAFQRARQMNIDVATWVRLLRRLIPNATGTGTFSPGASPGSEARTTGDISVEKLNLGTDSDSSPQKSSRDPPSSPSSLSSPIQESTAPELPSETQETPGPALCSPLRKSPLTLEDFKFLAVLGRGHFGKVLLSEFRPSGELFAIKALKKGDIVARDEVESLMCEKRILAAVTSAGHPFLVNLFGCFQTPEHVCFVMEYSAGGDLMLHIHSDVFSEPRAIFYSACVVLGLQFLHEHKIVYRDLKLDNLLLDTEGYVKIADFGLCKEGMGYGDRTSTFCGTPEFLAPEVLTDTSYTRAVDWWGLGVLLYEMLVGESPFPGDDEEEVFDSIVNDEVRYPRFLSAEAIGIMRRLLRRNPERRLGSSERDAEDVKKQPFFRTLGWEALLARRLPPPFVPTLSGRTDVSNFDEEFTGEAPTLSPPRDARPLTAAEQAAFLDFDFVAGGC

382 unique human kinases [5] = target: T5, 382 unique human kinases (Homo sapiens, UniProt Q9HBY8); settings: kinase SGK2, compound 10 uM; for remaining activity at 10 µM: read-out: % Enzyme Activity (relative to DMSO controls)
T5 construct: purchased Reaction Biology (HotSpot contract assay)
T5 sequence (Q9HBY8 1-367): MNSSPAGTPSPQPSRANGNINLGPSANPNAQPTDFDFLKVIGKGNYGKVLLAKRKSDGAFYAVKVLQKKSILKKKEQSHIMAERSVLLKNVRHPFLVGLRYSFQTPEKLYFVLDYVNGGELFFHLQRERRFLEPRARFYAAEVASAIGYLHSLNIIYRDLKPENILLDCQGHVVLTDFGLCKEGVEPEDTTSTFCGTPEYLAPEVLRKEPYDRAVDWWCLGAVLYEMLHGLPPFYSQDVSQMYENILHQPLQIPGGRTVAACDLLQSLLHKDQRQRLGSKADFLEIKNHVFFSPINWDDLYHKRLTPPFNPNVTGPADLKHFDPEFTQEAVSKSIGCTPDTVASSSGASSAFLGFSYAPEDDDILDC

382 unique human kinases [6] = target: T6, 382 unique human kinases (Homo sapiens, UniProt Q9UKE5); settings: TNIK, 10 uM; for remaining activity at 10 µM: read-out: % Enzyme Activity (relative to DMSO controls)
T6 construct: purchased Reaction Biology (HotSpot contract assay)
T6 sequence (Q9UKE5 whole entry): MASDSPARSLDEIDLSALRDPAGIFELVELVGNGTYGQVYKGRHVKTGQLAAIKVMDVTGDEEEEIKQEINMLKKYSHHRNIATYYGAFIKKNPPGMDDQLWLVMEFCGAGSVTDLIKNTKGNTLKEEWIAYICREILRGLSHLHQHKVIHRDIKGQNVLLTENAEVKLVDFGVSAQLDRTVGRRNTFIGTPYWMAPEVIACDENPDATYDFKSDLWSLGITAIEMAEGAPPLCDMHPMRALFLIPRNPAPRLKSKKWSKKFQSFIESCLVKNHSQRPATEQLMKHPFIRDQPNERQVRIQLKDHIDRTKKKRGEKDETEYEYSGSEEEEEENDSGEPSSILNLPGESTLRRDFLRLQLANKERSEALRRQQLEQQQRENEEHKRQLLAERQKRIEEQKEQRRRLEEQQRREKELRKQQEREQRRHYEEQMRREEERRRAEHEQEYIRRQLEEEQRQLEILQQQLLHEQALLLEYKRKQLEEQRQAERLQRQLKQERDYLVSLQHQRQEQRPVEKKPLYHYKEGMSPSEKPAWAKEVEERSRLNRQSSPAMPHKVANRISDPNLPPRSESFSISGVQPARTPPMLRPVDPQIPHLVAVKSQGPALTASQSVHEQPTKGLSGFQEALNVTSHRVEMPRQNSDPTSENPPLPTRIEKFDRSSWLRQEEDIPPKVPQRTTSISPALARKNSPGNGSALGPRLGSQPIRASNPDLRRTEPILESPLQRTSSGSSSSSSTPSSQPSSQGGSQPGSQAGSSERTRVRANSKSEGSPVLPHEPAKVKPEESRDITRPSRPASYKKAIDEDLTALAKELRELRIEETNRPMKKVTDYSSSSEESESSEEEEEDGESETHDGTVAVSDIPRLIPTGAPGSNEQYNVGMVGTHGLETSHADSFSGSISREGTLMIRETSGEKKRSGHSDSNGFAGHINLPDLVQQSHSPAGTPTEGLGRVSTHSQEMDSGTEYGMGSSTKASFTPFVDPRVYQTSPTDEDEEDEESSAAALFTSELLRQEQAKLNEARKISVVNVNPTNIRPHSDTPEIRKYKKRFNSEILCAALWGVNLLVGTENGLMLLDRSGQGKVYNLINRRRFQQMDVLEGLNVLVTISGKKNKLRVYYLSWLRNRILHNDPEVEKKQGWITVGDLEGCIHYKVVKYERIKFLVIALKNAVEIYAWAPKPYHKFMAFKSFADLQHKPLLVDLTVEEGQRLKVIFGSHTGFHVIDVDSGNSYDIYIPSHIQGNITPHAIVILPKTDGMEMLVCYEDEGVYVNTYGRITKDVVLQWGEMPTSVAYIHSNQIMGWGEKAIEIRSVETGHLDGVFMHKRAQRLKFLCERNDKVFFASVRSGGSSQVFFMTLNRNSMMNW

382 unique human kinases [7] = target: T7, 382 unique human kinases (Homo sapiens, UniProt Q9UM73); settings: ALK, 10 uM; for remaining activity at 10 µM: read-out: % Enzyme Activity (relative to DMSO controls)
T7 construct: purchased Reaction Biology (HotSpot contract assay)

382 unique human kinases [8] = target: T8, 382 unique human kinases (Homo sapiens, UniProt Q9UPZ9); settings: kinase LCK2/ICK, compound 10 uM; for remaining activity at 10 µM: read-out: % Enzyme Activity (relative to DMSO controls)
T8 construct: purchased Reaction Biology (HotSpot contract assay)
T8 sequence (Q9UPZ9 1-632): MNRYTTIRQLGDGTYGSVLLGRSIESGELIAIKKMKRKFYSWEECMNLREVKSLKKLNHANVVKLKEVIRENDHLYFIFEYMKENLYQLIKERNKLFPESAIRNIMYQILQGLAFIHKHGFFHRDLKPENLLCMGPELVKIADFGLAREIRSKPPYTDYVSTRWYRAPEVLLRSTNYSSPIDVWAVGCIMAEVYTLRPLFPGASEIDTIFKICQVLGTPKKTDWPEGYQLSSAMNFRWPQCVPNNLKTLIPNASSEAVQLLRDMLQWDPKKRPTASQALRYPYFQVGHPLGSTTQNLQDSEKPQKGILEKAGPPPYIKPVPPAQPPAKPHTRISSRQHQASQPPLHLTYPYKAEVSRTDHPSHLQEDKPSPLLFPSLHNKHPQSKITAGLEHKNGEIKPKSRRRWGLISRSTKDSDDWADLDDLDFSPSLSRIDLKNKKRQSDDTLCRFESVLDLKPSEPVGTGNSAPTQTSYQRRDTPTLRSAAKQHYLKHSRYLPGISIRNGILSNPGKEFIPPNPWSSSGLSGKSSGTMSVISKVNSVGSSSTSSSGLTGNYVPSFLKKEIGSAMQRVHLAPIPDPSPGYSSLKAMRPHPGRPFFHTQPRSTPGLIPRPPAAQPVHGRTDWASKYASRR

382 unique human kinases [9] = target: T9, 382 unique human kinases (Homo sapiens, UniProt P00519, M351T); settings: ABL1 (M351T), [ATP] 10 µM, compound 10 uM; for remaining activity at 10 µM: read-out: % Enzyme Activity (relative to DMSO controls)
T9 construct: purchased Reaction Biology (HotSpot contract assay)

382 unique human kinases [10] = target: T10, 382 unique human kinases (Homo sapiens, UniProt P08581, Y1230C); settings: c-MET (Y1230C), 10 uM; for remaining activity at 10 µM: read-out: % Enzyme Activity (relative to DMSO controls)
T10 construct: purchased Reaction Biology (HotSpot contract assay)

382 unique human kinases [11] = target: T11, 382 unique human kinases (Homo sapiens, UniProt P42685); settings: FRK/PTK5, [ATP] 30 µM, compound 10 uM; for remaining activity at 10 µM: read-out: % Enzyme Activity (relative to DMSO controls)
T11 construct: purchased Reaction Biology (HotSpot contract assay)
T11 sequence (P42685 whole entry): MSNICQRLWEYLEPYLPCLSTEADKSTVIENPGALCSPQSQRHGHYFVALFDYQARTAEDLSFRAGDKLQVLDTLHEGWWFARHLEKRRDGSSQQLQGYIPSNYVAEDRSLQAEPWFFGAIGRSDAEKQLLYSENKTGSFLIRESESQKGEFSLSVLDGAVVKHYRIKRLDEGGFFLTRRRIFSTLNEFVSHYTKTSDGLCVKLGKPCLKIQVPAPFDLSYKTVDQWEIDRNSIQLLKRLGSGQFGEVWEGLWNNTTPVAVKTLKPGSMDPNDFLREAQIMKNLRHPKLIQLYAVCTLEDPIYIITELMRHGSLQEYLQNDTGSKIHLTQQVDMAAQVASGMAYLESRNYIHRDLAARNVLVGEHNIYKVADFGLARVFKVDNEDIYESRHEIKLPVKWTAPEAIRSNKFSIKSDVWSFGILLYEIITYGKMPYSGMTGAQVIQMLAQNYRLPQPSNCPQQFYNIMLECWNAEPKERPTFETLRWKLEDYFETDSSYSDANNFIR

382 unique human kinases [12] = target: T12, 382 unique human kinases (Homo sapiens, UniProt Q9H792); settings: PEAK1, [ATP] 30 µM
T12 construct: purchased Reaction Biology (HotSpot contract assay)

[13] = compound 10 uM, read-out: % Enzyme Activity (relative to DMSO controls)

T1 sequence (O00311 whole entry): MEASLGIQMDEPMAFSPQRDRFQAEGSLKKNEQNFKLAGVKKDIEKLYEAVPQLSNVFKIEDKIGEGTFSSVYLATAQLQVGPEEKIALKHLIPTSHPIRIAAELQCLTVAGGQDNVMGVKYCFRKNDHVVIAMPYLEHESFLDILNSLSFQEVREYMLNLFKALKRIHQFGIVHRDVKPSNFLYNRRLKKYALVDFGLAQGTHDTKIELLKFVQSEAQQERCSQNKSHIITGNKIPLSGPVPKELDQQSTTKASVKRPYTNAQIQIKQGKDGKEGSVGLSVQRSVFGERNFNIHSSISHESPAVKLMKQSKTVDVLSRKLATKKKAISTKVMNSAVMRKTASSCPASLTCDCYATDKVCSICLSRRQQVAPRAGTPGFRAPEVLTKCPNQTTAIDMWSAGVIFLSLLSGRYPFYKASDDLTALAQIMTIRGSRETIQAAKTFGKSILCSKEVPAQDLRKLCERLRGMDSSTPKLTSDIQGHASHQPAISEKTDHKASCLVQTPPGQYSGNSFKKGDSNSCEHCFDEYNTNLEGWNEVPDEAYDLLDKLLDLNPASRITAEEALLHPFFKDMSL

| SMILES | remaining activity at 10 µM (382 unique human kinases [1]) [%] | remaining activity at 10 µM (382 unique human kinases [2]) [%] | remaining activity at 10 µM (382 unique human kinases [3]) [%] | remaining activity at 10 µM (382 unique human kinases [4]) [%] | remaining activity at 10 µM (382 unique human kinases [5]) [%] | remaining activity at 10 µM (382 unique human kinases [6]) [%] | remaining activity at 10 µM (382 unique human kinases [7]) [%] | remaining activity at 10 µM (382 unique human kinases [8]) [%] | remaining activity at 10 µM (382 unique human kinases [9]) [%] | remaining activity at 10 µM (382 unique human kinases [10]) [%] | remaining activity at 10 µM (382 unique human kinases [11]) [%] | remaining activity at 10 µM (382 unique human kinases [12]; [13]) [%] | further results |
| --- | --- | --- | --- | --- | --- | --- | --- | --- | --- | --- | --- | --- | --- |
| CC(C)c1cc(-c2n[nH]c(=O)n2-c2ccc3c(ccn3C)c2)c(O)cc1O [Ganetespib (STA9090)] | 85.9 | 76.6 | 63.5 | 71.7 | 85.5 | 62.6 | 67.5 | 90.4 |  |  |  |  |  |
| CC(C)c1cc(-c2n[nH]c(=O)n2-c2ccc3c(ccn3C)c2)c(O)cc1O [Ganetespib] |  |  |  |  |  |  |  |  | 1.72 | 97 | 18.1 | 10.2 | remaining activity at 1 µM (382 unique human kinases [12]; compound 1 uM, read-out: % Enzyme Activity (relative to DMSO controls)): 43.5% |
| CCNC(=O)c1noc(-c2cc(C(C)C)c(O)cc2O)c1-c1ccc(CN2CCOCC2)cc1 [Luminespib (AUY-922)] | 107 | 102 | 97.7 | 75.6 | 110 | 96.6 | 97.2 | 113 |  |  |  |  | % Enzyme Activity (relative to DMSO controls) (382 unique human kinases [1]): 105.45%; % Enzyme Activity (relative to DMSO controls) (382 unique human kinases [2]): 100.31%; % Enzyme Activity (relative to DMSO controls) (382 unique human kinases [3]): 93.85%; % Enzyme Activity (relative to DMSO controls) (382 unique human kinases [4]): 73.04%; % Enzyme Activity (relative to DMSO controls) (382 unique human kinases [5]): 108.05%; % Enzyme Activity (relative to DMSO controls) (382 unique human kinases [6]): 95.71%; % Enzyme Activity (relative to DMSO controls) (382 unique human kinases [7]): 95.41%; % Enzyme Activity (relative to DMSO controls) (382 unique human kinases [8]): 109.49% |
| CCNC(=O)c1noc(-c2cc(C(C)C)c(O)cc2O)c1-c1ccc(CN2CCOCC2)cc1 [Luminespib] |  |  |  |  |  |  |  |  | 5.53 | 103 | 64.5 | 30.1 | % Enzyme Activity (relative to DMSO controls) (382 unique human kinases [9]): 5.21%; % Enzyme Activity (relative to DMSO controls) (382 unique human kinases [10]): 102.31%; % Enzyme Activity (relative to DMSO controls) (382 unique human kinases [11]): 63.67%; % Enzyme Activity (relative to DMSO controls) (382 unique human kinases [12]; compound 10 uM): 29.19% |
